Among the data in paper PMC4620497 (Scientific Reports, 2015) are IC50 and remaining binding values, retold here.

A value given as a limit tells only on which side of the number the result lay.

For one experiment, the target named is T1, CAMK4 (Homo sapiens, UniProt Q16566).
T1 construct: purchased DiscoveRx KINOMEscan (Ambit Biosciences)
T1 sequence (Q16566 1-473): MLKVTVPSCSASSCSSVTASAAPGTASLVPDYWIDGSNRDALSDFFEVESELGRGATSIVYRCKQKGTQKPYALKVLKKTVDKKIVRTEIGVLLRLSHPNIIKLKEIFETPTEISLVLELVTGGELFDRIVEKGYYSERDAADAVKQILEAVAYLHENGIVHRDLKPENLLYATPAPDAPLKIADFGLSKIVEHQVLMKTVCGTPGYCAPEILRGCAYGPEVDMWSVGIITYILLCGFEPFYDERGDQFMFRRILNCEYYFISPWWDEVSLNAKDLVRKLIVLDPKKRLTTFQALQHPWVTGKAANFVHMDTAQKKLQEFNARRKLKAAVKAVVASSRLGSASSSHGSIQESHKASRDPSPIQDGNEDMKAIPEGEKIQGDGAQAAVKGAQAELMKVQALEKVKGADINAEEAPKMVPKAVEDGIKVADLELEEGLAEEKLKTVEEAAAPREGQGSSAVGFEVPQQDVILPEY
Details: method as in earlier work. Conditions: Table S1; cited from earlier work.

In a further experiment the target is T2, TTK (Homo sapiens, UniProt P33981).
T2 construct: purchased DiscoveRx KINOMEscan (Ambit Biosciences)
T2 sequence (P33981 whole entry): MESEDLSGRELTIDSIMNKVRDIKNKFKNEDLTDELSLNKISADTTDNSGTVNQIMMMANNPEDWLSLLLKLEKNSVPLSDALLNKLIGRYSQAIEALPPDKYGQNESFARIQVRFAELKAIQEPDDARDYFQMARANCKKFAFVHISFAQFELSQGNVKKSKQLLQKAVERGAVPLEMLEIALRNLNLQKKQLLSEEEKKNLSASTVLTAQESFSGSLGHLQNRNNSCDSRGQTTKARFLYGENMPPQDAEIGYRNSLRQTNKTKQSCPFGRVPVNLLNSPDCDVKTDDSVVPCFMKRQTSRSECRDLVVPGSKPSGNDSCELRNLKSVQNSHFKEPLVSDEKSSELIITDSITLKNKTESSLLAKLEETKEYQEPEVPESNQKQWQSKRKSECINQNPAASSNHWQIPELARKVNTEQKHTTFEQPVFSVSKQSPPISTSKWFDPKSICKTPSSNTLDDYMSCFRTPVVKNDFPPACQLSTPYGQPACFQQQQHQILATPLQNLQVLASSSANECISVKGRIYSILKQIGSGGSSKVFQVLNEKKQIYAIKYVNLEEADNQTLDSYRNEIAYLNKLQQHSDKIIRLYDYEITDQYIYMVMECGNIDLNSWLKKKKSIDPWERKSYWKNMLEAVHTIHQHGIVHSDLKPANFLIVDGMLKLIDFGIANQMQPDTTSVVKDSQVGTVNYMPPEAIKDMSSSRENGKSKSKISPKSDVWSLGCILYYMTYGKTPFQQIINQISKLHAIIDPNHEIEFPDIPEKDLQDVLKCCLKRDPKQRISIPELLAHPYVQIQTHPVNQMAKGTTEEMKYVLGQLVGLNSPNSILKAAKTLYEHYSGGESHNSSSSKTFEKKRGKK
As to the kind of experiment: KINOMEscan panel screen. Format: binding. Conditions: read-out: Percent Control(%).

A further experiment has as its target T3, p38-beta (Homo sapiens, UniProt Q15759).
T3 construct: purchased DiscoveRx KINOMEscan (Ambit Biosciences)
Description: KINOMEscan panel screen. Format: binding. To be noted: read-out: Percent Control(%).

A further experiment has as its target T4, TRKC (Homo sapiens, UniProt Q16288).
T4 construct: purchased DiscoveRx KINOMEscan (Ambit Biosciences)
Description: KINOMEscan panel screen. To be noted: read-out: Percent Control(%). It is filed as binding.

The next experiment deals with T5, MAPKAPK2 (Homo sapiens, UniProt P49137).
T5 construct: purchased DiscoveRx KINOMEscan (Ambit Biosciences)
T5 sequence (P49137 whole entry): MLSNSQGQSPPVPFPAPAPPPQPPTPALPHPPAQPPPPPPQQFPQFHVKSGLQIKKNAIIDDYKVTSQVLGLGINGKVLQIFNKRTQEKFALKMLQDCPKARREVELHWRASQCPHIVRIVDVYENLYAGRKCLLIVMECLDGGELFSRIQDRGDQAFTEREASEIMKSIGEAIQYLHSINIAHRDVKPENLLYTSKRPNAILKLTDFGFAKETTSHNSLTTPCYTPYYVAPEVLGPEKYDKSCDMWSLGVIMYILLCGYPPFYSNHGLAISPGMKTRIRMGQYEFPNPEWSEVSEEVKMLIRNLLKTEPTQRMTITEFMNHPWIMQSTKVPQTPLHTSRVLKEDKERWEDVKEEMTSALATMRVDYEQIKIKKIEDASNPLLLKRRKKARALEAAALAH
Description: KINOMEscan panel screen. Conditions: read-out: Percent Control(%). It is filed as binding.

The next experiment addresses T6, DCAMKL2 (Homo sapiens, UniProt Q8N568).
T6 construct: purchased DiscoveRx KINOMEscan (Ambit Biosciences)
Description: KINOMEscan panel screen. It is filed as binding. To be noted: read-out: Percent Control(%).

A further experiment deals with T7, MLCK (Homo sapiens, UniProt Q32MK0).
T7 construct: purchased DiscoveRx KINOMEscan (Ambit Biosciences)
Description: KINOMEscan panel screen. To be noted: read-out: Percent Control(%). Format: binding.

In a further experiment the target is T8, MAST1 (Homo sapiens, UniProt Q9Y2H9).
T8 construct: purchased DiscoveRx KINOMEscan (Ambit Biosciences)
Description: KINOMEscan panel screen. Conditions: read-out: Percent Control(%). It is filed as binding.

The next experiment has as its target T9, PIK3CA(E542K) (Homo sapiens, UniProt P42336, E542K).
T9 construct: purchased DiscoveRx KINOMEscan (Ambit Biosciences)
Description: KINOMEscan panel screen. To be noted: read-out: Percent Control(%). Format: binding.

The target of the next experiment is T10, LATS1 (Homo sapiens, UniProt O95835).
T10 construct: purchased DiscoveRx KINOMEscan (Ambit Biosciences)
Description: KINOMEscan panel screen. To be noted: read-out: Percent Control(%). It is filed as binding.

A further experiment has as its target T11, CSNK1D (Homo sapiens, UniProt P48730).
T11 construct: purchased DiscoveRx KINOMEscan (Ambit Biosciences)
As to the kind of experiment: KINOMEscan panel screen. Format: binding. To be noted: read-out: Percent Control(%).

The target of another experiment is T12, AURKC (Homo sapiens, UniProt Q9UQB9).
T12 construct: purchased DiscoveRx KINOMEscan (Ambit Biosciences)
Description: KINOMEscan panel screen. Format: binding. Conditions: read-out: Percent Control(%).

In the next experiment the target is T13, CAMKK2 (Homo sapiens, UniProt Q96RR4).
T13 construct: purchased DiscoveRx KINOMEscan (Ambit Biosciences)
Description: KINOMEscan panel screen. Conditions: read-out: Percent Control(%). It is filed as binding.

Another experiment deals with T14, FLT3(N841I) (Homo sapiens, UniProt P36888, N841I).
T14 construct: purchased DiscoveRx KINOMEscan (Ambit Biosciences)
As to the kind of experiment: KINOMEscan panel screen. Format: binding. Conditions: read-out: Percent Control(%).

In the next experiment the target is T15, MAP4K2 (Homo sapiens, UniProt Q12851).
T15 construct: purchased DiscoveRx KINOMEscan (Ambit Biosciences)
As to the kind of experiment: KINOMEscan panel screen. Conditions: read-out: Percent Control(%). It is filed as binding.

The target of another experiment is T16, EPHA6 (Homo sapiens, UniProt Q9UF33).
T16 construct: purchased DiscoveRx KINOMEscan (Ambit Biosciences)
Description: KINOMEscan panel screen. It is filed as binding. To be noted: read-out: Percent Control(%).

Another experiment deals with T17, MAK (Homo sapiens, UniProt P20794).
T17 construct: purchased DiscoveRx KINOMEscan (Ambit Biosciences)
T17 sequence (P20794 whole entry): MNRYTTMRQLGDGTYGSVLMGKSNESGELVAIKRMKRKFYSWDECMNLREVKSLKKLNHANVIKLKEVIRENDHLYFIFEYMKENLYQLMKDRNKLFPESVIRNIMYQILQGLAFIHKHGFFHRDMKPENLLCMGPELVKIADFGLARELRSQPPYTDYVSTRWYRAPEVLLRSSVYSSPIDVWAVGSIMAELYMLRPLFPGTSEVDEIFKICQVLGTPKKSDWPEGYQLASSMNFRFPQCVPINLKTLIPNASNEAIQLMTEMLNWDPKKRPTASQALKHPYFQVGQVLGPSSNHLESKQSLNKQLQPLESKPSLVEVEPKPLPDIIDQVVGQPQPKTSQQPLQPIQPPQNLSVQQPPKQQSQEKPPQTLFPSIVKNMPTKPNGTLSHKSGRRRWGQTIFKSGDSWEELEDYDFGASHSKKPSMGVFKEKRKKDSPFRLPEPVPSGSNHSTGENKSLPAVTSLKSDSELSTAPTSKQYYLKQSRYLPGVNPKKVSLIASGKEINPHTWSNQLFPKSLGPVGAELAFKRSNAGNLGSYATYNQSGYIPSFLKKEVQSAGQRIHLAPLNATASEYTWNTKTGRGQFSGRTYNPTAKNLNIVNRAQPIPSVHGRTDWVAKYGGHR
As to the kind of experiment: KINOMEscan panel screen. It is filed as binding. Conditions: read-out: Percent Control(%).

The next experiment deals with T18, ASK2 (Homo sapiens, UniProt O95382).
T18 construct: purchased DiscoveRx KINOMEscan (Ambit Biosciences)
As to the kind of experiment: KINOMEscan panel screen. Format: binding. To be noted: read-out: Percent Control(%).

Experiment [1] concerns the target T19, RSK1(Kin.Dom.1-N-terminal) (Homo sapiens, UniProt Q15418).
T19 construct: RSK1(Kin.Dom.1-N-terminal); purchased DiscoveRx KINOMEscan (Ambit Biosciences)
Description: KINOMEscan panel screen. Conditions: read-out: Percent Control(%). It is filed as binding.

In a further experiment the target is T20, ABL1-phosphorylated (Homo sapiens, UniProt P00519).
T20 construct: purchased DiscoveRx KINOMEscan (Ambit Biosciences)
As to the kind of experiment: KINOMEscan panel screen. It is filed as binding. Conditions: read-out: Percent Control(%).

The next experiment has as its target T21, TESK1 (Homo sapiens, UniProt Q15569).
T21 construct: purchased DiscoveRx KINOMEscan (Ambit Biosciences)
Description: KINOMEscan panel screen. Format: binding. Conditions: read-out: Percent Control(%).

The next experiment has as its target T22, PRKCQ (Homo sapiens, UniProt Q04759).
T22 construct: purchased DiscoveRx KINOMEscan (Ambit Biosciences)
Description: KINOMEscan panel screen. Format: binding. Conditions: read-out: Percent Control(%).

For a further experiment, the target named is T23, EGFR(T790M) (Homo sapiens, UniProt P00533, T790M).
T23 construct: purchased DiscoveRx KINOMEscan (Ambit Biosciences)
Description: KINOMEscan panel screen. Format: binding. To be noted: read-out: Percent Control(%).

The target of a further experiment is T24, PIK3CG (Homo sapiens, UniProt P48736).
T24 construct: purchased DiscoveRx KINOMEscan (Ambit Biosciences)
As to the kind of experiment: KINOMEscan panel screen. It is filed as binding. To be noted: read-out: Percent Control(%).

For another experiment, the target named is T25, BRSK2 (Homo sapiens, UniProt Q8IWQ3).
T25 construct: purchased DiscoveRx KINOMEscan (Ambit Biosciences)
As to the kind of experiment: KINOMEscan panel screen. Format: binding. To be noted: read-out: Percent Control(%).

The target of a further experiment is T26, DRAK2 (Homo sapiens, UniProt O94768).
T26 construct: purchased DiscoveRx KINOMEscan (Ambit Biosciences)
As to the kind of experiment: KINOMEscan panel screen. Format: binding. Conditions: read-out: Percent Control(%).

Another experiment addresses T27, ERK2 (Homo sapiens, UniProt P28482).
T27 construct: purchased DiscoveRx KINOMEscan (Ambit Biosciences)
As to the kind of experiment: KINOMEscan panel screen. Format: binding. To be noted: read-out: Percent Control(%).

The test system of a further experiment is H1975. As to the kind of experiment: MTT cell viability assay. To be noted: Homo sapiens, NCI-H1975, 72 h.
In another experiment the target is T28, NEK9 (Homo sapiens, UniProt Q8TD19).
T28 construct: purchased DiscoveRx KINOMEscan (Ambit Biosciences)
As to the kind of experiment: KINOMEscan panel screen. To be noted: read-out: Percent Control(%). Format: binding.

The target of the next experiment is T29, AMPK-alpha2 (Homo sapiens, UniProt P54646).
T29 construct: purchased DiscoveRx KINOMEscan (Ambit Biosciences)
As to the kind of experiment: KINOMEscan panel screen. Format: binding. Conditions: read-out: Percent Control(%).

In a further experiment the target is T30, MARK1 (Homo sapiens, UniProt Q9P0L2).
T30 construct: purchased DiscoveRx KINOMEscan (Ambit Biosciences)
As to the kind of experiment: KINOMEscan panel screen. It is filed as binding. To be noted: read-out: Percent Control(%).

The target in another experiment is T31, FLT3(R834Q) (Homo sapiens, UniProt P36888, R834Q).
T31 construct: purchased DiscoveRx KINOMEscan (Ambit Biosciences)
As to the kind of experiment: KINOMEscan panel screen. Format: binding. Conditions: read-out: Percent Control(%).

The next experiment has as its target T32, KIT(D816H) (Homo sapiens, UniProt P10721, D816H).
T32 construct: purchased DiscoveRx KINOMEscan (Ambit Biosciences)
Description: KINOMEscan panel screen. To be noted: read-out: Percent Control(%). Format: binding.

The target of the next experiment is T33, TNK1 (Homo sapiens, UniProt Q13470).
T33 construct: purchased DiscoveRx KINOMEscan (Ambit Biosciences)
T33 sequence (Q13470 whole entry): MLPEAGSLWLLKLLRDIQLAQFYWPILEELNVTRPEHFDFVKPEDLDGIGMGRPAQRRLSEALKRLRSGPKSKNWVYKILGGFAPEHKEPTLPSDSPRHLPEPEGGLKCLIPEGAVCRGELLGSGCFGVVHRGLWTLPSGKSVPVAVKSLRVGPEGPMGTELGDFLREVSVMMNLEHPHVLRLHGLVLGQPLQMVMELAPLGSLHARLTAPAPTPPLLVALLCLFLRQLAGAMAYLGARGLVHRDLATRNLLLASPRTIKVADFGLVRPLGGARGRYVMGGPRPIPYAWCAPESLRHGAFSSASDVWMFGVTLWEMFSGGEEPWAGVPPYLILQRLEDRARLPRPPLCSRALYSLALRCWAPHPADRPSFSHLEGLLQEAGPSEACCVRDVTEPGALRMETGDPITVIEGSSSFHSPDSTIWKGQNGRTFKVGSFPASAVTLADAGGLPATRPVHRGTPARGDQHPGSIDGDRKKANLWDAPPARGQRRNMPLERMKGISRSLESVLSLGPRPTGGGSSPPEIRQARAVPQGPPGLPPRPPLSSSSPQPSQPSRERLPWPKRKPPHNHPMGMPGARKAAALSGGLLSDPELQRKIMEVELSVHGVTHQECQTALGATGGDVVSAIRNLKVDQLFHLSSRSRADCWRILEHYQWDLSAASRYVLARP
Description: KINOMEscan panel screen. To be noted: read-out: Percent Control(%). It is filed as binding.

Another experiment has as its target T34, BRK (Homo sapiens, UniProt Q13882).
T34 construct: purchased DiscoveRx KINOMEscan (Ambit Biosciences)
As to the kind of experiment: KINOMEscan panel screen. It is filed as binding. Conditions: read-out: Percent Control(%).

The next experiment has as its target T35, TEC (Homo sapiens, UniProt P42680).
T35 construct: purchased DiscoveRx KINOMEscan (Ambit Biosciences)
Description: KINOMEscan panel screen. It is filed as binding. To be noted: read-out: Percent Control(%).

T11 sequence (P48730 whole entry): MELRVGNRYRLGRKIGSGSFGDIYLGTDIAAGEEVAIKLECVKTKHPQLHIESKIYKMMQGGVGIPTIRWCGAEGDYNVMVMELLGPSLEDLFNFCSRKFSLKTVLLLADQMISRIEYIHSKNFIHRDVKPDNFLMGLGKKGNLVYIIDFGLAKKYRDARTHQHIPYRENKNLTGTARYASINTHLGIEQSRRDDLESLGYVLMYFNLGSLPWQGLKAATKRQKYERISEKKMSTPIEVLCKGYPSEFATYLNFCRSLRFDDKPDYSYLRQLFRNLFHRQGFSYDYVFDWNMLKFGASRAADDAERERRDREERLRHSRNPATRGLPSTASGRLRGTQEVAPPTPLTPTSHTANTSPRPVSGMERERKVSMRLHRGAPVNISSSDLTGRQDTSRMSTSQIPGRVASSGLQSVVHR
T6 sequence (Q8N568 whole entry): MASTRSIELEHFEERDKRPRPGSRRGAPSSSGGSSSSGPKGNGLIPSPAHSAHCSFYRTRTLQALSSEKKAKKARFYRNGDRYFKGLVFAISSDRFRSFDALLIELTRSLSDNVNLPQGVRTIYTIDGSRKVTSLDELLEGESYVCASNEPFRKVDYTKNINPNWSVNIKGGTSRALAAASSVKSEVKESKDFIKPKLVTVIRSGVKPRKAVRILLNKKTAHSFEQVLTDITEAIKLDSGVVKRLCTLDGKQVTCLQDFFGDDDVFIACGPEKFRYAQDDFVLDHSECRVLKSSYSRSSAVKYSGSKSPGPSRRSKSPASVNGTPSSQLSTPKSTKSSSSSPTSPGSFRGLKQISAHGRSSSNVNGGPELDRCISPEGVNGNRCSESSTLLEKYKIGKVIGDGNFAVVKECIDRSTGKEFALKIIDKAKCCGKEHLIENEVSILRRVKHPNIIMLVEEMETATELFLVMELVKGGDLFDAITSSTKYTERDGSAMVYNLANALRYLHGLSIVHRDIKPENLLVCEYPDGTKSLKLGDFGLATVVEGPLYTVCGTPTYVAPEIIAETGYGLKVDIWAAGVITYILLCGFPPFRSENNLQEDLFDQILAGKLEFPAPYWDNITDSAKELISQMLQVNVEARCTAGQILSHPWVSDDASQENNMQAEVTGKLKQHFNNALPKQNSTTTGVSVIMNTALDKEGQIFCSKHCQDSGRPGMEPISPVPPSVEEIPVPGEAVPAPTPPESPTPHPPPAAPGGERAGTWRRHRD
T3 sequence (Q15759 whole entry): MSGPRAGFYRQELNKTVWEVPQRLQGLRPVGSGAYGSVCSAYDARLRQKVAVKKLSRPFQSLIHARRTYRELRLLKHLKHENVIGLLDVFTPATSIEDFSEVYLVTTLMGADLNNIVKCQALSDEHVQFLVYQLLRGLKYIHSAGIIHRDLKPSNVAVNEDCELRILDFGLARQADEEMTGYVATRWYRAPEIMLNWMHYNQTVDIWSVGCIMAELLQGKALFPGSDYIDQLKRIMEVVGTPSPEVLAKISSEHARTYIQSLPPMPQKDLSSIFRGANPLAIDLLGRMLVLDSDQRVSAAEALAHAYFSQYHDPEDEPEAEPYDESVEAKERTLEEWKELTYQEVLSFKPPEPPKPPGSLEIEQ
T4 sequence (Q16288 32-839): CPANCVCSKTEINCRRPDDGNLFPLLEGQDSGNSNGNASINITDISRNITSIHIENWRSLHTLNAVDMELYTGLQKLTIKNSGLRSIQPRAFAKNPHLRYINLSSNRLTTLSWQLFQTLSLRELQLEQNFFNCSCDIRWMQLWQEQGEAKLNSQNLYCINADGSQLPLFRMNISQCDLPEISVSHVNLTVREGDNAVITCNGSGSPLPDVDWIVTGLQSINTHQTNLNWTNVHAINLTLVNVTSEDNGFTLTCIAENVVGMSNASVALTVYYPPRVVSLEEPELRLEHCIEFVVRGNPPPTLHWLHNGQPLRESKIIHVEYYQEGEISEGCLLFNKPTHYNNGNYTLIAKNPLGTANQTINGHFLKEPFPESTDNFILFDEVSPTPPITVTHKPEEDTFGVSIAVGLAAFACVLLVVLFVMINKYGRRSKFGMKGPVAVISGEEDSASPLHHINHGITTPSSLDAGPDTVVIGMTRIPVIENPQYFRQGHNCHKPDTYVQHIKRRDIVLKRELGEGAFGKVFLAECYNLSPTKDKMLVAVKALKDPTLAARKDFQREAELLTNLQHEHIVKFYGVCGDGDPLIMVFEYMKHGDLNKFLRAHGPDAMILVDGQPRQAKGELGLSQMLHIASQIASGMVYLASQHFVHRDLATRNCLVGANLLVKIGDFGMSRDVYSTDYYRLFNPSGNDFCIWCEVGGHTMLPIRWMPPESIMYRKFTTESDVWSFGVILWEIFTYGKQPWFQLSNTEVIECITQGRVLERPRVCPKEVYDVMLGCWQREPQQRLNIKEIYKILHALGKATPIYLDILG

For orientation: IC50 means the point on the concentration scale where inhibition reaches its midpoint. Regarding `O=C(Nc1ccc(Oc2ncnc3[nH]ncc23)cc1)Nc1ccc(Cl)c(C(F)(F)F)c1` [Compound 1, 1-(4-(1H-pyrazolo[3,4-d]pyrimidin-4-yloxy)phenyl)-3-(4-chloro-3-(trifluoromethyl)phenyl)urea], on CAMK4, the IC50 was more than 10 µM.

As for `CC(C)(C)c1cc(NC(=O)Nc2ccc(Oc3ncnc4[nH]ncc34)c(F)c2)no1` [SKLB-677, 1-(4-(1H-pyrazolo[3,4-d]pyrimidin-4-yloxy)-3-fluorophenyl)-3-(5-tert-butylisoxazol-3-yl)urea], the remaining binding at 10 µM on TTK came out at 17%; at p38-beta, 0.2%; at TRKC it was 0.05%; at MAPKAPK2 it was 100%; at DCAMKL2 it was 100%; at MLCK, 58%. For the same compound, the remaining binding at 10 µM came to 100% on MAST1; 100% on PIK3CA(E542K); 47% at LATS1; 44% at CSNK1D; 1.4% on AURKC; 30% on CAMKK2. For the same compound, the remaining binding at 10 µM amounted to 0% on FLT3(N841I); 28% on MAP4K2; 0% on EPHA6; 21% on MAK; 32% at ASK2; 100% in experiment [1]. Besides, the remaining binding at 10 µM on ABL1-phosphorylated was 3.2%; at TESK1 it was 82%; at PRKCQ, 50%; on EGFR(T790M), 74%; on PIK3CG, 100%; on BRSK2, 76%. Moreover, the remaining binding at 10 µM on DRAK2 stood at 78%; at ERK2, 100%; on NEK9, 54%; on AMPK-alpha2, 7.8%; at MARK1, 78%; on FLT3(R834Q), 2.8%. For the same compound, the remaining binding at 10 µM at KIT(D816H) amounted to 8.4%; on TNK1, 2.2%; on BRK, 23%; on TEC, 100%. This compound also gave an IC50 with H1975 of more than 10 µM.
